Results: patent EP0330017A2, “Use of thiazoles for increasing animal performance” (BOEHRINGER INGELHEIM VETMEDICA GMBH, priority 1988, dated 1989)

Key:
[1] = Performance promotion in lambs, 42-day feeding trial (weight gain, carcass quality); type: in vivo, Lämmern; conditions: 42-day trial
Text: (§1) Die leistungsfördernde Wirkung der vorstehend erwähnten Thiazole wurde beispielsweise an der Verbindung N-[2-(4-Carboxymethoxyphenyl)-1-methylethenyl]-2-(2-trifluormethyl-thiazol-4-yl)morpholin wie folgt geprüft:
2.) 2 Gruppen von 12 Lämmern erhielten identisches Futter und Wasser ad libitum. Die eine Gruppe erhielt zusätzlich 8 ppm der vorstehend erwähnten Verbindung. Während der 42-tä-gigen Versuchsperiode wurden Gewichtszunahme und Parameter der Schlachtkörperqualität gegenüber der Kontrolle bestimmt.

[2] = Performance promotion in lambs, 33-day feeding trial (weight gain, feed consumption); type: in vivo, Lämmern; conditions: 33-day trial
Text: as §1
1.) 2 Gruppen von 7 Lämmern, wobei jedes Tier einzeln gehalten wurde, erhielten identisches Futter und Wasser ad libitum. Die eine Gruppe erhielt zusätzlich 8 ppm der vorstehend erwähnten Verbindung. Während der 33-tägigen Versuchsperiode wurden Gewichtszunahme und Futterverbrauch gegenüber der Kontrollgruppe bestimmt.

[3] = Performance promotion in pigs, 33-day feeding trial (weight gain, feed consumption, carcass quality); type: in vivo, Schweinen; conditions: 8 ppm test compound in feed, 33-day trial, 10 pigs
Text: as §1
3.) 2 Gruppen von 10 Schweinen, wobei jedes Tier einzeln gefüttert wurde, erhielten identisches Futter und Wasser ad libitum. Die eine Gruppe erhielt zusätzlich 8 ppm der vorstehend erwähnten Verbindung. Während der 33-tägigen Versuchsperiode wurden Gewichtszunahme, Futterverbrauch der Schlachtkörperqualität gegenüber der Kontrollgruppe bestimmt.

[4] = 8 ppm test compound in feed, 12 lambs
[5] = 8 ppm test compound in feed, 7 lambs

CC(Cc1ccc(OCC(=O)O)cc1)N1CCOC(c2csc(C(F)(F)F)n2)C1 (centres unmarked) [Testverbindung]
Endgewicht [1, 4]: 46,6 kg | Gewicht des musculus longissimus dorsi [1, 4]: 324,0 g | Gewichtszunahme [1, 4]: 320,0 g/Tag | Rückenfettdicke [1, 4]: 1,78 mm | Schlachtkörperzusammensetzung: Fett [1, 4]: 16,1% | Schlachtkörperzusammensetzung: Fleisch [1, 4]: 69,1% | Schlachtkörperzusammensetzung: Knochen [1, 4]: 14,8% | Gewicht des musculus longissimus dorsi, Abweichung zur Kontrolle ([1]; 8 ppm vs 0 ppm control, lambs): +6,9% | Schlachtkörperzusammensetzung: Fett, Abweichung zur Kontrolle ([1]; 8 ppm vs 0 ppm control, lambs): -6,9% | Schlachtkörperzusammensetzung: Fleisch, Abweichung zur Kontrolle ([1]; 8 ppm vs 0 ppm control, lambs): +1,2% | Schlachtkörperzusammensetzung: Knochen, Abweichung zur Kontrolle ([1]; 8 ppm vs 0 ppm control, lambs): +2,8% | Endgewicht [2, 5]: 43,9 kg | Futteraufnahme [2, 5]: 1598,0 g/Tag | Futterverwertung (kg Zunahme/kg Futter) [2, 5]: 0,161 kg Zunahme/kg Futter | Gewichtszunahme [2, 5]: 258,0 g/Tag | Futteraufnahme, Abweichung zur Kontrolle ([2]; 8 ppm vs 0 ppm control, lambs): +4,4% | Futterverwertung (kg Zunahme/kg Futter), Abweichung zur Kontrolle ([2]; 8 ppm vs 0 ppm control, lambs): +50,5% | Gewichtszunahme, Abweichung zur Kontrolle ([2]; 8 ppm vs 0 ppm control, lambs): +57,3% | Ausschlachtung [3]: 77,2% | Endgewicht [3]: 97,6 kg | Futterverwertung (kg Futter/kg Zunahme) [3]: 3,17 kg Futter/kg Zunahme | Gewichte verschiedener Teilstücke: Rippe [3]: 7,25 kg | Gewichte verschiedener Teilstücke: Schinken [3]: 7,46 kg | Gewichte verschiedener Teilstücke: Schulter [3]: 9,48 kg | Gewichtszunahme [3]: 754,0 g/Tag | Rückenmuskelfläche [3]: 32,3 cm²
